From patent US20260076902A1, “LIQUID, STORAGE STABLE, DIRECTLY INJECTABLE, PANTOPRAZOLE FORMULATIONS, THEIR USES AND MANUFACTURING” (Etico Lifesciences Private Limited, priority 2024, published 2026)

Experiment: Dilution with 0.9% sodium chloride solution, precipitation
Assay type: physicochemical
Conditions: alpha tocopherol tested as stabilizer

In the case of `Cc1c(C)c2c(c(C)c1O)CC[C@@](C)(CCC[C@H](C)CCC[C@H](C)CCCC(C)C)O2` [Alpha tocopherol], the “behaviour upon dilution with 0.9% sodium chloride solution” value is reported as “precipitation was formed”.
